Results on two molecules are retold here after ChEMBL document CHEMBL5236665, “Accumulation of lankamycin derivative with a branched-chain sugar from a blocked mutant of chalcose biosynthesis in Streptomyces rochei 7434AN4” (2023).

As a reminder, the MIC is the lowest concentration that inhibits growth of the organism.

The test system of assay [1] is Micrococcus luteus. Description: Antimicrobial activity against Micrococcus luteus assessed as inhibition of microbial growth at 0.03 to 3.33 ug/ml. Details: scale not given: the % may be the effect or the level left. Conditions: dose 0.03-3.33 µg/ml; at 0.03 to 3.33 µg/mL. The assay is classed as functional.
The subject of assay [2] is Micrococcus luteus. The assay can be described thus: Antimicrobial activity against Micrococcus luteus assessed as inhibition of microbial growth. The assay is classed as functional.

Take `CO[C@]1(C)C[C@H](O[C@H]2[C@H](C)[C@@H](O[C@@H]3O[C@H](C)C[C@](O)(C(C)=O)[C@H]3O)[C@@H](C)C[C@](C)(O)C(=O)[C@H](C)[C@@H](OC(C)=O)[C@@H](C)[C@@H]([C@@H](C)[C@H](C)O)OC(=O)[C@@H]2C)O[C@@H](C)[C@H]1OC(C)=O`: the Activity in the assay with Micrococcus luteus [1] was determined as 50%. As for `CO[C@H]1C[C@@H](C)O[C@@H](O[C@@H]2[C@@H](C)[C@H](O[C@H]3C[C@@](C)(OC)[C@H](OC(C)=O)[C@H](C)O3)[C@@H](C)C(=O)O[C@H]([C@@H](C)[C@H](C)O)[C@H](C)[C@H](OC(C)=O)[C@@H](C)C(=O)[C@@](C)(O)C[C@@H]2C)[C@@H]1O`, the MIC in the assay with Micrococcus luteus [2] was 1 µg/mL.
